Experimental data taken from patent US5183821A, “Method for treating leukemias using N-(2-dimethylaminoethyl)-3-amino-1,8-naphthalimide for treating leukemias and solid tumors” (priority 1991, dated 1993).
Values after ≈ are worked out from the molar mass of the structure shown. “Also recorded” adds a separate entry of the source.

Experiments:
Colon 38 [1] = assay: Experiment 12 (second): Colon 38 s.c., saline with Tween-80, female; assay type: in vivo, Mouse B6 D2 F1 (BDF1)
Source text: (§1) Host: Mouse B6 D2 F1 (BDF1)
(§2) Inoculum Site: Subcutaneous
(§3) Vehicle: Saline with Tween-80
Treatment schedule (relative to tumor inoculation day): days 2 and 9
(§4) Day of evaluation (relative to tumor inoculation day): 20
(§5) Parameter: Median tumor weight (MTW) estimated from tumor diameter
(§6) NCI minimal activity criteria: Percent T/C≤42
(§7) Percent T/C: Ratio of test (T) evaluation to control (C) evaluation expressed as a percentage

L-1210 Lymphoid Leukemia = assay: NCI screen, L-1210 Lymphoid Leukemia, intraperitoneal (summary); assay type: in vivo, Mouse; settings: for dosage range over which activity was observed: i.p. L1210, ILS≥25%; for Table II evaluation: full wrapped cell: Activity substantially greater than the minimal
Source text: (§8) The activity of the compound has been evaluated by experiments carried out under the auspices of the Division of Cancer Treatment, National Cancer Institute, employing techniques considered to be reliable indicators of chemotherapeutic utility in the treatment of forms of cancer in human patients. The details of the methodology employed in the reported experiments may be determined with reference to established NCI screening methods.
(§9) In the experiments conducted by the NCI, evaluation of activity is made on the basis of appropriate parameters, such as median survival time (MST) or change in average tumor diameter (CATD)in ocular micrometer units (OMU).

Colon 38 [2] = assay: Experiment 13: Colon 38 s.c., saline with Tween-80, male; assay type: in vivo, Mouse B6 D2 F1 (BDF1)
Source text: as §1, §2, §3
Treatment schedule (relative to tumor inoculation day): Days 2 and 9
as §4, §5, §6, §7

canine whole blood = assay: Hemolytic potential testing, canine whole blood; settings: 50 mg/ml
Procedure: Therefore, a concentration of 12.5 mg/ml was used in the dog studies.

Lewis lung carcinoma = assay: NCI screen, Lewis lung carcinoma, intravenous (summary); assay type: in vivo, Mouse; settings: for Antitumor activity in words: Lewis lung carcinoma
Source text: as §8, with “methods. In the experiments conducted by the NCI, evaluation of activity is made on the basis of appropriate parameters, such as median survival time (MST) or change in average tumor diameter (CATD)in ocular micrometer units (OMU).” for “methods.”

Fischer 344 rats = assay: Single dose rat toxicity study; assay type: in vivo; settings: for toxicity summary, rats: single dose i.v. (X1)
Procedure: Preclinical toxicity studies of BIDA were completed in CD2F1 Mice, Fischer 344 rats and beagle dogs (4). The animals were injected IV with a single bolus or daily for five days.
A preclinical toxicology study of benzisoquinolinedione (NSC-308847) was done at Springborn Institute for Bioresearch, Inc. using CD2 F1 mice, Fischer 344 rats and beagle dogs. Animals were injected intravenously on a single dose (X1) or five daily dose (X5) regimen. Bulk drug was titrated with 0.5N HCl to form a salt solution of benzisoquinolinedione at a pH of 5.0-6.5. Sterile 0.9% saline was used for diluting the dosing solutions and was used for the vehicle control animals.
The following summarizes the major organ toxicities resulting from IV administration of benzisoquinolinedione to rats.

[3] = tested on: MX-1 mammary tumor xenograft; assay: NCI screen, MX-1 breast (mammary) xenograft, renal capsule (summary); assay type: in vivo, human tumor xenograft in athymic mice; settings: for Antitumor activity in words: MX-1 mammary xenograft
Source text: as §8, §9

Colon 38 [4] = assay: NCI screen, Colon 38, subcutaneous (summary); assay type: in vivo, Mouse; settings: for Antitumor activity in words: colon 38
Source text: as §8, §9

B16 Melanocarcinoma = assay: Experiment 16: B16 i.p., saline with Tween-80, male; assay type: in vivo, Mouse B6 C3 F1
Source text: Tumor: B16 Melanocarcinoma
Inoculum Site: Intraperitoneal
Tissue: Homogenate (or brei), tumor
as §3
Treatment schedule (relative to tumor inoculation day): daily on days 1-9
Day of evaluation (relative to tumor inoculation day): 60
Parameter: Median survival time (MST) in days
NCI minimal activity criteria: Percent T/C≥125
as §7

physchem = assay type: physicochemical
Procedure: While the compound was generally tested as a suspension in Tween-80, in one L1210 experiment it was tested as a solution in 0.1 N HCL diluted with saline. The level of activity (ILS=117%) was maintained. The solubilities of the compound in 0.01 N and 0.1 HCl are approximately 3 and 30 mg/ml, respectively.
Formulation: 100 mg drug and 1 N HCl lyophilized yield the salt. The lyophilized cake dissolves in 2 ml sterile water to yield a 50 mg/ml red solution at pH 5.0-7.0.

[5] = 15.0 mg/kg, listed as benzisoquinolinedione

## CN(C)CCN1C(=O)c2cccc3cc(N)cc(c23)C1=O [Example 9, 1H-Benz[de]isoquinoline-1,3(2H)-dione, 5-amino-2-[2-(dimethylamino)ethyl]]
Colon 38 [1]; 8.00 mg/kg i.p.
  Median tumor weight (MTW): 1100
  Percent T/C: 88%
Colon 38 [1]; 16.00 mg/kg i.p.
  Median tumor weight (MTW): 1256
  Percent T/C: 100%
Colon 38 [1]; 32.00 mg/kg i.p.
  Median tumor weight (MTW): 1005
  Percent T/C: 80%
Colon 38 [1]; 64.00 mg/kg i.p.
  Median tumor weight (MTW): 699
  Percent T/C: 55%
Colon 38 [1]; 128.00 mg/kg i.p.
  Median tumor weight (MTW): Deaths before evaluation
L-1210 Lymphoid Leukemia; listed as BIDA
  dosage range over which activity was observed: two-fold dosing range
L-1210 Lymphoid Leukemia; listed as the compound
  dosage range over which activity was observed: two-fold dosage range
L-1210 Lymphoid Leukemia; ip, 16 mg/kg
  mean optimal increased life span (ILS): 96%
  optimal increased life spans (ILS): 75-117%
L-1210 Lymphoid Leukemia; mean survival time, 12 tests
  Table II evaluation: Activity
L-1210 Lymphoid Leukemia; median survival time, 21 tests
  Table II evaluation: Activity
L-1210 Lymphoid Leukemia; p.o. or I.V.
  activity by other routes: is retained when given p.o. or I.V.
L-1210 Lymphoid Leukemia; solution in 0.1 N HCl diluted with saline
  ILS: 117%
Colon 38 [2]; 16.00 mg/kg i.p.
  Median tumor weight (MTW): 2474
  Percent T/C: 102%
Colon 38 [2]; 32.00 mg/kg i.p.
  Median tumor weight (MTW): 1146
  Percent T/C: 47%
Colon 38 [2]; 64.00 mg/kg i.p.
  Median tumor weight (MTW): 700
  Percent T/C: 29%
Colon 38 [2]; 128.00 mg/kg i.p.
  Median tumor weight (MTW): Deaths before evaluation
Canine whole blood; 1:1 drug to blood
  hemolysis: hemolysis
Canine whole blood; 1:2
  hemolysis: Slight hemolysis
Canine whole blood; 1:4
  hemolysis: none
Lewis lung carcinoma; listed as BIDA
  Antitumor activity in words: not active
Lewis lung carcinoma; listed as the compound
  Antitumor activity in words: not observed to be effective
Lewis lung carcinoma; median survival time, 12 tests, full wrapped cell: Activity not confirmed
  Table II evaluation: Activity not
Fischer 344 rats; 15.0 mg/kg (1/2MELD10), single
  Mortality / lethality: 0/20
Fischer 344 rats; [5]
  Hematologic findings: Mild decreases in leukocytes were seen in males on day 4; also recorded: mild decreases in reticulocytes were seen in females
  Microscopic hematologic lesions: mild diffuse thymic atrophy in three male rats on day 4; also recorded: No hematologic lesions were seen in either sex on day 29
Fischer 344 rats; 30.0 mg/kg, day 4 and day 29, listed as benzisoquinolinedione
  Microscopic hematologic lesions: moderate to marked diffuse bone marrow atrophy and mild to moderate diffuse thymic atrophy; also recorded: by day 29, no hematologic lesions were found
Fischer 344 rats; 30.0 mg/kg, day 29
  Reproductive findings: All five long-term male rats showed decreased testicular weights
Fischer 344 rats; 30.0 mg/kg, listed as benzisoquinolinedione
  Hematologic findings: Mild decreases in hemoglobin, hematocrit and red blood cells were seen in females on days 4 and 8, but not in males; also recorded: moderate decreases in reticulocytes and leukocytes on day 4 with moderate increases following on day 8
Fischer 344 rats; 30.0 mg/kg, males, day 29
  mild diffuse testicular atrophy, incidence: four of five
Fischer 344 rats; 35.0 mg/kg (MELD50), single
  Mortality / lethality: 0/20
Fischer 344 rats; 35.0 mg/kg, day 4
  Microscopic hematologic lesions: marked to severe diffuse bone marrow atrophy and mild to moderate diffuse thymic atrophy
Fischer 344 rats; 35.0 mg/kg, day 29, listed as benzisoquinolinedione
  Reproductive findings: All five male rats showed decreased testicular weights and mild diffuse testicular atrophy; also recorded: No reproductive lesions were seen in females
Fischer 344 rats; 35.0 mg/kg, listed as benzisoquinolinedione
  Hematologic findings: Mild decreases in hemoglobin, hematocrit and red blood cells; also recorded: moderate decreases in reticulocytes in both sexes on day 4, followed by moderate increases on day 8; also recorded: Leukopenia (both lymphocytes and neutrophils); also recorded: Both sexes were comparable to controls on days 22 and 29
Fischer 344 rats; MELD10, single, 30.0 mg/kg in text, 20.00 in Table 4
  Mortality / lethality: 0/20
Fischer 344 rats; listed as BIDA
  toxicity summary, rats: reproductive system toxicity was seen at doses of MELD 10 and higher; also recorded: decreased testicular weights and mild diffuse testicular atrophy
Fischer 344 rats; listed as benzisoquinolinedione
  toxicity summary, rats: toxic on both schedules (X1, X5) to the hematopoietic system and to the male reproductive system
[3]; listed as BIDA
  Antitumor activity in words: No activity was seen
[3]; listed as the compound
  Antitumor activity in words: not active
[3]; change in average tumor diameter, 4 tests, full wrapped cell: Activity not confirmed
  Table II evaluation: Activity not
Colon 38 [4]; 64 mg/kg i.p.
  T/C, growth of s.c. implanted colon 38 tumor: 17%
Colon 38 [4]; Mus musculus, 64 mg/kg i.p., read-out: inhibition of growth of s.c. implanted colon 38 tumor
  inhibition at 64 mg/kg: 83%
Colon 38 [4]; listed as BIDA
  Antitumor activity in words: not active
Colon 38 [4]; listed as the compound
  Antitumor activity in words: at least a reproducible minimal activity; also recorded: active
Colon 38 [4]; median tumor weight, 25 tests, full wrapped cell: Reproducible minimal activity
  Table II evaluation: Reproducible minimal
B16 Melanocarcinoma; 1.00 mg/kg i.p.
  Median survival time (MST): 17.6 days
  Percent T/C: 102%
B16 Melanocarcinoma; 2.00 mg/kg i.p.
  Median survival time (MST): 17.3 days
  Percent T/C: 101%
B16 Melanocarcinoma; 4.00 mg/kg i.p.
  Median survival time (MST): 19.3 days
  Percent T/C: 112%
B16 Melanocarcinoma; 8.00 mg/kg i.p.
  Median survival time (MST): 20.3 days
  Percent T/C: 118%
B16 Melanocarcinoma; 16.00 mg/kg i.p.
  Median survival time (MST): 35.0 days
  Percent T/C: 87%
B16 Melanocarcinoma; 32.00 mg/kg i.p.
  Median survival time (MST): 8.3 days
physchem; 0.01 n hcl
  solubility: ~3 mg/mL (≈ 10.6 mM)
physchem; 0.1 hcl
  solubility: ~30 mg/mL (≈ 106 mM)
physchem; lyophilized cake in 2 ml sterile water
  pH of reconstituted solution: 5.0-7.0
